Laboratory results: paper PMC11314561, “Design and Synthesis of Novel Aminoindazole-pyrrolo[2,3-b]pyridine Inhibitors of IKKα That Selectively Perturb Cellular Non-Canonical NF-κB Signalling” (Molecules, 2024)
One block for each molecule: values may come before it.

How the values were obtained:
Experiment in all cases: kinase panel
Format in all cases: biochemical
[1] = molecular target: EphB2(h) (Homo sapiens, UniProt P29323)
Summary of the method: (§1)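 Percentage inhibition was recorded for each compound against a broad kinase panel of 231 enzymes. Because of its close structural resemblance to another analogue, one compound was screened against 98 chosen kinases.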

[2] = molecular target: JNK2α2(h) (Homo sapiens, UniProt P45984)
Summary of the method: as §1

[3] = molecular target: Snk(h) (Homo sapiens, UniProt Q9NYY3)
Summary of the method: as §1

[4] = molecular target: Fer(h) (Homo sapiens, UniProt P16591)
Fer(h), sequence (P16591 whole entry): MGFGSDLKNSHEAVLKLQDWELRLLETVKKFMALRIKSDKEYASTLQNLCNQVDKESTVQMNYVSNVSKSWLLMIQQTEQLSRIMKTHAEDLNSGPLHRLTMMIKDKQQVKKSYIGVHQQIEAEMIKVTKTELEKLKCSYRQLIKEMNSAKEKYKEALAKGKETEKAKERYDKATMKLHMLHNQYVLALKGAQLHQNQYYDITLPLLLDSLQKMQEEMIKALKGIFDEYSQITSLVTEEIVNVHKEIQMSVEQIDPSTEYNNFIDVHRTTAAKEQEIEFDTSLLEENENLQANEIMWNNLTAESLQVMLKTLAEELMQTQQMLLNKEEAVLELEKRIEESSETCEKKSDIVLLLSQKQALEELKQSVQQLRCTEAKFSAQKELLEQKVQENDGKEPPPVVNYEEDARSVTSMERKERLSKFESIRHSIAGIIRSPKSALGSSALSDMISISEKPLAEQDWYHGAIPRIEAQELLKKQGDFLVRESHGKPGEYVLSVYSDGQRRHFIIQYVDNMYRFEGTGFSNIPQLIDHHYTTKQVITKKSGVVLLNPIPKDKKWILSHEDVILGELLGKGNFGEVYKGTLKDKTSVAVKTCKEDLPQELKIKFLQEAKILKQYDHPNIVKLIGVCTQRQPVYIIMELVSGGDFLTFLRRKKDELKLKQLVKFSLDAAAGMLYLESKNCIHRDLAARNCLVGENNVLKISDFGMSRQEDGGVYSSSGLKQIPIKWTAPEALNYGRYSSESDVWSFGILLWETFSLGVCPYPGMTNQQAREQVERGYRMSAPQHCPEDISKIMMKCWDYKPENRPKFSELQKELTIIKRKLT
Summary of the method: as §1

[5] = molecular target: TSSK1(h) (Homo sapiens, UniProt Q9BXA7)
TSSK1(h), sequence (Q9BXA7 whole entry): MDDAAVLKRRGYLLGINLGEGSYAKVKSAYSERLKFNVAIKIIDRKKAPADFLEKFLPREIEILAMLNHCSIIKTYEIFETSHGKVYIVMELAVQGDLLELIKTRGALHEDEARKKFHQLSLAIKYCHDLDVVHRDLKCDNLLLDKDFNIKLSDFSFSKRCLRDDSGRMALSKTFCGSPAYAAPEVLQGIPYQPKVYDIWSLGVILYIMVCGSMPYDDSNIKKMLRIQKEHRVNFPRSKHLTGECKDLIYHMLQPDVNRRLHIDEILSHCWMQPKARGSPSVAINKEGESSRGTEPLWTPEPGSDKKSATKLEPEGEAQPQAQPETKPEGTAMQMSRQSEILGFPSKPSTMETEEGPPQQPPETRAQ
Summary of the method: as §1

[6] = molecular target: MST3(h) (Homo sapiens, UniProt Q9Y6E0)
MST3(h), sequence (Q9Y6E0 whole entry): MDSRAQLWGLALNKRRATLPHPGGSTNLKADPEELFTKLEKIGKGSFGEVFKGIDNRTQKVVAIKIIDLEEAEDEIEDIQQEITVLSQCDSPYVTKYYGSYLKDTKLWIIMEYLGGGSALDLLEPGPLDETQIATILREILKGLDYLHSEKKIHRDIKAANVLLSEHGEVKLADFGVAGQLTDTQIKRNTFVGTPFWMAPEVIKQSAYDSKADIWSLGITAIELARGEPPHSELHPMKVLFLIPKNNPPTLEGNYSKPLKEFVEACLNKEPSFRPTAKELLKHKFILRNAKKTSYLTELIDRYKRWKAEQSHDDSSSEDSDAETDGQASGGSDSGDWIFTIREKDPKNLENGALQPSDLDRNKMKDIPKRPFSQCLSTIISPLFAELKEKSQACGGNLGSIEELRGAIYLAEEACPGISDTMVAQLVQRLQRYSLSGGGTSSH
Summary of the method: as §1

[7] = molecular target: DDR2(h) (Homo sapiens, UniProt Q16832)
Summary of the method: as §1

[8] = molecular target: FAK(h) (Homo sapiens, UniProt Q05397)
FAK(h), sequence (Q05397 whole entry): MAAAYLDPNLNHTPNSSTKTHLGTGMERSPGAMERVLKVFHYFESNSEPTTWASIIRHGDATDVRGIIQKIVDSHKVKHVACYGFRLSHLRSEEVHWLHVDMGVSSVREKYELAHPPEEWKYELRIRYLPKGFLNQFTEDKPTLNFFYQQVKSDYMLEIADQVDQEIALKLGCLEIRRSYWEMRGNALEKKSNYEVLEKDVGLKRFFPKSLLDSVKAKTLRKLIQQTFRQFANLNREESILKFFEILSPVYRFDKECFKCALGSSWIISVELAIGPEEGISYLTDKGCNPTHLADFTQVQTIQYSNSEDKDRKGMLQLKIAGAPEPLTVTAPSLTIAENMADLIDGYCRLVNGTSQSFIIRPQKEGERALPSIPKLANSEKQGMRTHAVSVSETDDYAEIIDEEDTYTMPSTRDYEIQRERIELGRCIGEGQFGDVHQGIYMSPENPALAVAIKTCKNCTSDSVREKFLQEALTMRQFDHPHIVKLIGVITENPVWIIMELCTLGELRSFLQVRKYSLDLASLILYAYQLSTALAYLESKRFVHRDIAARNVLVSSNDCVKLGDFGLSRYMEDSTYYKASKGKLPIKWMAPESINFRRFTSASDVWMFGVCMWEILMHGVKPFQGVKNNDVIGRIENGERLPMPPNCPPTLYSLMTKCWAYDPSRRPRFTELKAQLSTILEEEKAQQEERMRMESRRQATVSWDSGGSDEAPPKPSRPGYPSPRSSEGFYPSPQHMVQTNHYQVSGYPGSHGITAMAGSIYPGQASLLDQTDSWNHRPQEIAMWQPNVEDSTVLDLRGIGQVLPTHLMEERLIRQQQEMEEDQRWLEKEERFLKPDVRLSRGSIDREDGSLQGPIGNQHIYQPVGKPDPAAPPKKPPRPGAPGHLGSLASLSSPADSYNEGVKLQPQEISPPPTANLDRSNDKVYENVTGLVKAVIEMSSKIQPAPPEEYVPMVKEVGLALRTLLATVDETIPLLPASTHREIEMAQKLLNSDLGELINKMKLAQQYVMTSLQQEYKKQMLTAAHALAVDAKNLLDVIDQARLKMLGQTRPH
Summary of the method: as §1

[9] = molecular target: BTK(h) (Homo sapiens, UniProt Q06187)
Summary of the method: as §1

[10] = molecular target: AMPKα2(h) (Homo sapiens, UniProt P54646)
AMPKα2(h), sequence (P54646 whole entry): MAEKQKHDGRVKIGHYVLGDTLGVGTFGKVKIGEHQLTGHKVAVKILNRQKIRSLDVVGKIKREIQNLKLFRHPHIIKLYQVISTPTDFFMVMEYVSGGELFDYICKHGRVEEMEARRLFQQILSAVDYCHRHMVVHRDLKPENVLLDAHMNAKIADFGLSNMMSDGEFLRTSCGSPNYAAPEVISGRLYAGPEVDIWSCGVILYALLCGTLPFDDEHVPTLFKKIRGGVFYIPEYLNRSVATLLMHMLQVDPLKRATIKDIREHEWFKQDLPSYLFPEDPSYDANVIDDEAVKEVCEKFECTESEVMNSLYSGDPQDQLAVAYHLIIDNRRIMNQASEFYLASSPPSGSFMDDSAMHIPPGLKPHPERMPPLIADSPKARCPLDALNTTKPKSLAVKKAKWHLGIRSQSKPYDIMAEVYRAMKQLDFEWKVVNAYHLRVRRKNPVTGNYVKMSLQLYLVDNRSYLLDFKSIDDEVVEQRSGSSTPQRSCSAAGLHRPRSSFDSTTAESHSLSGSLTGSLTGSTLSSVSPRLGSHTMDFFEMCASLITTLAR
AMPKα2(h), sequence (Q9Y478 whole entry partner): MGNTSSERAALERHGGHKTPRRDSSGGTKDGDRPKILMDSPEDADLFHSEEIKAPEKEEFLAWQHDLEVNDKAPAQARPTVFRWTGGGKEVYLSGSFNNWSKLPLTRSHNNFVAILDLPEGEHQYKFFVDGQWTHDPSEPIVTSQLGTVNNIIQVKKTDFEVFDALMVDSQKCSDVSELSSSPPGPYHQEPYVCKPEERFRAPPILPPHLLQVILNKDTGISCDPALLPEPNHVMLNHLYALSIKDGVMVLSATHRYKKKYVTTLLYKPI
AMPKα2(h), sequence (P54619 whole entry partner): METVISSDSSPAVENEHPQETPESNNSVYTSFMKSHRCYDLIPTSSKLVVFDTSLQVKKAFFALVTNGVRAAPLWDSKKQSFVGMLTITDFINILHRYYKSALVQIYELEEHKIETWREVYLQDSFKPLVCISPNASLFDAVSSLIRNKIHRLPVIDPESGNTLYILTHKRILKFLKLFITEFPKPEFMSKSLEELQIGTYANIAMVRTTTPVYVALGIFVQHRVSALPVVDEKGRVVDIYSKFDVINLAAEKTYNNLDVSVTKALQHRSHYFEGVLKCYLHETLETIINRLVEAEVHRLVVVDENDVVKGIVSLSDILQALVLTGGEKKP
Summary of the method: as §1

[11] = molecular target: MELK(h) (Homo sapiens, UniProt Q14680)
Summary of the method: as §1

[12] = molecular target: MRCKα(h) (Homo sapiens, UniProt Q5VT25)
Summary of the method: as §1

[13] = molecular target: IR(h), activated (Homo sapiens, UniProt P06213)
Summary of the method: as §1

[14] = molecular target: Pim-3(h) (Homo sapiens, UniProt Q86V86)
Summary of the method: as §1

[15] = molecular target: Ron(h) (Homo sapiens, UniProt Q04912)
Summary of the method: as §1

[16] = molecular target: Rsk2(h) (Homo sapiens, UniProt P51812)
Summary of the method: as §1

[17] = molecular target: BrSK1(h) (Homo sapiens, UniProt Q8TDC3)
Summary of the method: as §1

[18] = molecular target: EphA3(h) (Homo sapiens, UniProt P29320)
Summary of the method: as §1

[19] = molecular target: MRCKβ(h) (Homo sapiens, UniProt Q9Y5S2)
Summary of the method: as §1

[20] = molecular target: DCAMKL2(h) (Homo sapiens, UniProt Q8N568)
Summary of the method: as §1

[21] = molecular target: PKBβ(h) (Homo sapiens, UniProt P31751)
Summary of the method: as §1

[22] = molecular target: PKA(h) (Homo sapiens, UniProt P17612)
Summary of the method: as §1

[23] = molecular target: Txk(h) (Homo sapiens, UniProt P42681)
Txk(h), sequence (P42681 whole entry): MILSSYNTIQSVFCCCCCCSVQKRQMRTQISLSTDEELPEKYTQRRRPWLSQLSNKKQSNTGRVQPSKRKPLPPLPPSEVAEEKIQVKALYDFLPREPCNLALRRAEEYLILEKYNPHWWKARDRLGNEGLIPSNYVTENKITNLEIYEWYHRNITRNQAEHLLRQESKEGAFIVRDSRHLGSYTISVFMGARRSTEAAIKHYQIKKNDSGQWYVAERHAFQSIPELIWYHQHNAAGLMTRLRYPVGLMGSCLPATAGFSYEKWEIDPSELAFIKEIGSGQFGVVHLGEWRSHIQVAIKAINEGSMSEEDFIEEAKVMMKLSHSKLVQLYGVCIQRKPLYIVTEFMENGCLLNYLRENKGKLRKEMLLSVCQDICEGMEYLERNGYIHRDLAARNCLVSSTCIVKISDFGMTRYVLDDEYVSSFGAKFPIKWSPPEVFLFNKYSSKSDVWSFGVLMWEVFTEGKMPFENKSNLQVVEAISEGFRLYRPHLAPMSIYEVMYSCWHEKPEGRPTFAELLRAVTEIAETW
Summary of the method: as §1

[24] = molecular target: ASK1(h) (Homo sapiens, UniProt Q99683)
Summary of the method: as §1

[25] = molecular target: GRK5(h) (Homo sapiens, UniProt P34947)
Summary of the method: as §1

[26] = molecular target: MuSK(h) (Homo sapiens, UniProt O15146)
Summary of the method: as §1

[27] = molecular target: CK1γ1(h) (Homo sapiens, UniProt Q9HCP0)
Summary of the method: as §1

[28] = molecular target: Pyk2(h) (Homo sapiens, UniProt Q14289)
Summary of the method: as §1

[29] = molecular target: SIK(h) (Homo sapiens, UniProt P57059)
Summary of the method: as §1

[30] = molecular target: TAO2(h) (Homo sapiens, UniProt Q9UL54)
Summary of the method: as §1

[31] = molecular target: DAPK2(h) (Homo sapiens, UniProt Q9UIK4)
Summary of the method: as §1

[32] = molecular target: SGK3(h) (Homo sapiens, UniProt Q96BR1)
Summary of the method: as §1

[33] = molecular target: WNK2(h) (Homo sapiens, UniProt Q9Y3S1)
Summary of the method: as §1

[34] = molecular target: HIPK3(h) (Homo sapiens, UniProt Q9H422)
Summary of the method: as §1

[35] = molecular target: MST1(h) (Homo sapiens, UniProt Q13043)
Summary of the method: as §1

[36] = molecular target: EphA2(h) (Homo sapiens, UniProt P29317)
Summary of the method: as §1

[37] = molecular target: PKCθ(h) (Homo sapiens, UniProt Q04759)
Summary of the method: as §1

[38] = molecular target: EphA4(h) (Homo sapiens, UniProt P54764)
Summary of the method: as §1

[39] = molecular target: Hck(h) (Homo sapiens, UniProt P08631)
Hck(h), sequence (P08631 whole entry): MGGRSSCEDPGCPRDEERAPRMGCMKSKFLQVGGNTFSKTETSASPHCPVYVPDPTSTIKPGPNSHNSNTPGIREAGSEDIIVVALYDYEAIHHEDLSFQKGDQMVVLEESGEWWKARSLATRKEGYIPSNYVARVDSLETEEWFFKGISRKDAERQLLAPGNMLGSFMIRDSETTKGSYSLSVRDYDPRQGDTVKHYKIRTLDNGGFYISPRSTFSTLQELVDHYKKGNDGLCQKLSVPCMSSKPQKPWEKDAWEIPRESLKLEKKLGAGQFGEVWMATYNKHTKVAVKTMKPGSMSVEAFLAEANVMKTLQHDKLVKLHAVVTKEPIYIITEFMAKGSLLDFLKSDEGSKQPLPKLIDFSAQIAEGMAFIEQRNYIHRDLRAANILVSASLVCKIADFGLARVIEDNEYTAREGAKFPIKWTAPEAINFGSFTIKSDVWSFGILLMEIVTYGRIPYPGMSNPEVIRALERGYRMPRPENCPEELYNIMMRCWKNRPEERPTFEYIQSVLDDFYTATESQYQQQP
Summary of the method: as §1

[40] = molecular target: Itk(h) (Homo sapiens, UniProt Q08881)
Summary of the method: as §1

[41] = molecular target: PEK(h) (Homo sapiens, UniProt Q9NZJ5)
Summary of the method: as §1

[42] = molecular target: EphA5(h) (Homo sapiens, UniProt P54756)
Summary of the method: as §1

inhibition at 1 µM [1]: 12%
inhibition at 1 µM [2]: 22%
inhibition at 1 µM [3]: 1%
inhibition at 1 µM [4]: 7%
inhibition at 1 µM [5]: 34%
inhibition at 1 µM [6]: 6%
inhibition at 1 µM [7]: 16%
inhibition at 1 µM [8]: 35%
inhibition at 1 µM [9]: 11%
inhibition at 1 µM [10]: 43%
inhibition at 1 µM [11]: 41%
inhibition at 1 µM [12]: -22%
inhibition at 1 µM [13]: 46%
inhibition at 1 µM [14]: 10%
inhibition at 1 µM [15]: 53%
inhibition at 1 µM [16]: 28%
inhibition at 1 µM [17]: 45%
inhibition at 1 µM [18]: 19%
inhibition at 1 µM [19]: -10%
inhibition at 1 µM [20]: 33%
inhibition at 1 µM [21]: 3%
inhibition at 1 µM [22]: 29%
inhibition at 1 µM [23]: 43%
inhibition at 1 µM [24]: 18%
inhibition at 1 µM [25]: 5%
inhibition at 1 µM [26]: 48%
inhibition at 1 µM [27]: 20%
inhibition at 1 µM [28]: 63%
inhibition at 1 µM [29]: 56%
inhibition at 1 µM [30]: 46%
inhibition at 1 µM [31]: 2%
inhibition at 1 µM [32]: -8%
inhibition at 1 µM [33]: 29%
inhibition at 1 µM [34]: 26%
inhibition at 1 µM [35]: 33%
inhibition at 1 µM [36]: 14%
inhibition at 1 µM [37]: 6%
inhibition at 1 µM [38]: 9%
inhibition at 1 µM [39]: 21%
inhibition at 1 µM [40]: 18%
inhibition at 1 µM [41]: 10%
inhibition at 1 µM [42]: 19%
Structure (SMILES): Nc1n[nH]c2ccc(-c3ccnc4[nH]c(-c5ccccc5)cc34)cc12 [Compound 4]

inhibition at 1 µM [1]: -8%
inhibition at 1 µM [2]: -6%
inhibition at 1 µM [3]: -2%
inhibition at 1 µM [4]: -16%
inhibition at 1 µM [5]: 14%
inhibition at 1 µM [6]: -3%
inhibition at 1 µM [7]: -17%
inhibition at 1 µM [8]: 8%
inhibition at 1 µM [9]: 3%
inhibition at 1 µM [10]: 13%
inhibition at 1 µM [11]: 13%
inhibition at 1 µM [12]: -18%
inhibition at 1 µM [13]: 23%
inhibition at 1 µM [14]: 6%
inhibition at 1 µM [15]: 7%
inhibition at 1 µM [16]: 0%
inhibition at 1 µM [17]: -5%
inhibition at 1 µM [18]: 0%
inhibition at 1 µM [19]: 4%
inhibition at 1 µM [20]: 6%
inhibition at 1 µM [21]: -5%
inhibition at 1 µM [22]: -6%
inhibition at 1 µM [23]: 27%
inhibition at 1 µM [24]: 23%
inhibition at 1 µM [25]: 3%
inhibition at 1 µM [26]: 13%
inhibition at 1 µM [27]: 10%
inhibition at 1 µM [28]: 22%
inhibition at 1 µM [29]: 8%
inhibition at 1 µM [30]: 7%
inhibition at 1 µM [31]: 13%
inhibition at 1 µM [32]: -27%
inhibition at 1 µM [33]: 22%
inhibition at 1 µM [34]: 6%
inhibition at 1 µM [35]: 4%
inhibition at 1 µM [36]: -9%
inhibition at 1 µM [37]: -14%
inhibition at 1 µM [38]: 2%
inhibition at 1 µM [39]: 16%
inhibition at 1 µM [40]: 20%
inhibition at 1 µM [41]: 8%
inhibition at 1 µM [42]: 8%
Structure (SMILES): Nc1n[nH]c2ccc(-c3ccnc4[nH]c(-c5cccc(OCc6ccccc6)c5)cc34)cc12 [Compound 5r [SU1261]]
